Assay results taken from US8283346B2, “Human immunodeficiency virus protease inhibitors” (The Trustees of the Stevens Institute of Technology, priority 2009, dated 2012).
Where “and” joins values, the source holds several entries; their conditions need not be identical. Equal entries are not always repeated.

target: T1, HIV-1 protease (Human immunodeficiency virus type 1 group M subtype B, UniProt P04585); test: In vitro HIV-1 protease assay; format: biochemical; conditions: not given
T1 construct: The HIV-1 protease is composed of 99 amino acids
Method: Compounds were evaluated for the ability to inhibit the enzymatic activity of HIV-1 protease in an in vitro assay. Protease activity was assessed in reactions catalyzed by purified HIV-1 protease at a concentration of 15 picomolar in buffer (50 mM sodium acetate, pH 5.5, 100 mM NaCl, 1 mg/mL bovine serum albumin) using a peptide substrate with sequence Val-Ser-Gln-Asn-(beta-naphthylalanine)-Pro-IIe-Val at a concentration of 440 micromolar in a final volume of 80 microliters. Compounds in DMSO stock were added to a final DMSO concentration of 2.5% and preincubated with enzyme prior to the initiation of the reaction by addition of substrate. Reactions were incubated at 30° C. for 60 minutes and were then quenched by the addition of 120 microliters 10% H3PO4. The amount of product formed was determined using high performance liquid chromatography with a Vydac C18 column and fluorescence detection of product. Percent inhibition was determined relative to control reactions without inhibitor, and half maximal inhibitory concentration (IC50) values were determined using a standard four parameter fit to the inhibition data. The IC50 is a quantitative measure of the effectiveness of a compound in inhibiting biological or biochemical function that indicates how much a particular compound or other substance is needed to inhibit a given biological process (or component of a process) by half.

| SMILES | biological activity (HIV-1 protease inhibition) in words |
| --- | --- |
| C[C@H]1Cc2cc(C(F)(F)F)ccc2S(=O)(=O)N(C[C@@H](O)[C@H](Cc2ccccc2)NC(=O)OC(C)(C)C)C1 [Compound 19] | not very active |
| COc1ccc2c(c1)C[C@@H](C)CN(C[C@@H](O)[C@H](Cc1ccccc1)NC(=O)OC(C)(C)C)S2(=O)=O [Compound 22] | not active |
| COc1ccc2c(c1)C[C@H](C)CN(C[C@@H](O)[C@H](Cc1ccccc1)NC(=O)OC(C)(C)C)S2(=O)=O [Compound 23] | excellent activity |
| C[C@H]1Cc2cc(F)ccc2S(=O)(=O)N(C[C@@H](O)[C@H](Cc2ccccc2)NC(=O)C2CN(c3ccccc3)C(=O)O2)C1 (stereo partly drawn) [Compound 24] | highly active |

same assay, conditions: SRS compound vs its SRR diastereomer (4 vs 3, 6 vs 5, 17 vs 16, 13 vs 12, 19 vs 18, 23 vs 22, 21 vs 20)

| SMILES | fold higher biological activity than the corresponding SRR (C4) diastereomer |
| --- | --- |
| C=CCOC(=O)N[C@@H](Cc1ccccc1)[C@H](O)CN1C[C@@H](C)Cc2ccccc2S1(=O)=O [Compound 4] | approximately 40 fold |
| CCOC(=O)N[C@@H](Cc1ccccc1)[C@H](O)CN1C[C@@H](C)Cc2ccccc2S1(=O)=O [Compound 6] | approximately 54 fold |
| C[C@H]1Cc2cc(F)ccc2S(=O)(=O)N(C[C@@H](O)[C@H](Cc2ccccc2)NC(=O)OC(C)(C)C)C1 [Compound 13] | ~132 fold |
| C[C@H]1Cc2ccccc2S(=O)(=O)N(C[C@@H](O)[C@H](Cc2ccccc2)NC(=O)Oc2ccccc2)C1 [Compound 17] | approximately 10 fold |
| C[C@H]1Cc2cc(C(F)(F)F)ccc2S(=O)(=O)N(C[C@@H](O)[C@H](Cc2ccccc2)NC(=O)OC(C)(C)C)C1 [Compound 19] | ~18 fold |
| C[C@H]1Cc2ccc(C(F)(F)F)cc2S(=O)(=O)N(C[C@@H](O)[C@H](Cc2ccccc2)NC(=O)OC(C)(C)C)C1 [Compound 21] | ~14 fold |
| COc1ccc2c(c1)C[C@H](C)CN(C[C@@H](O)[C@H](Cc1ccccc1)NC(=O)OC(C)(C)C)S2(=O)=O [Compound 23] | ~57 fold |

same assay, conditions: comparator named in the value

| SMILES | biological activity compared with another named compound, in words |
| --- | --- |
| CC(C)(C)OC(=O)N[C@@H](Cc1ccccc1)[C@H](O)CN1CC(c2ccccc2)Cc2ccccc2S1(=O)=O (mixture of isomers) [Compound 7] | biological activity higher than that of Compound 1 |
| CC(C)(C)OC(=O)N[C@@H](Cc1ccccc1)[C@H](O)CN1CCCc2ccccc2S1(=O)=O [Compound 1] | much less active when compared to Compound 4 |
| C=CCOC(=O)N[C@@H](Cc1ccccc1)[C@H](O)CN1C[C@H](c2ccccc2)Cc2ccccc2S1(=O)=O [Compound 8] | lower biological activity than that of Compound 9 |
| C=CCOC(=O)N[C@@H](Cc1ccccc1)[C@H](O)CN1C[C@@H](c2ccccc2)Cc2ccccc2S1(=O)=O [Compound 9] | higher biological activity than that of Compound 3 |
| CCOC(=O)N[C@@H](Cc1ccccc1)[C@H](O)CN1C[C@@H](c2ccccc2)Cc2ccccc2S1(=O)=O [Compound 11] | higher biological activity than that of Compound 10 |
| C[C@H]1Cc2cc(F)ccc2S(=O)(=O)N(C[C@@H](O)[C@H](Cc2ccccc2)NC(=O)OC(C)(C)C)C1 [Compound 13] | higher biological activity than Compound 15 |
| C[C@H]1Cc2ccccc2S(=O)(=O)N(C[C@@H](O)[C@H](Cc2ccccc2)NC(=O)OC(C)(C)C)C1 [Compound 15] | higher biological activity than that of Compound 14 |
| C[C@H]1Cc2ccccc2S(=O)(=O)N(C[C@@H](O)[C@H](Cc2ccccc2)NC(=O)Oc2ccccc2)C1 [Compound 17] | higher activity than Compound 16 |

same assay, conditions: mixture of two C4 diastereomers vs compound 1

| SMILES | fold greater activity than compound 1 (R=H) |
| --- | --- |
| CC1Cc2ccccc2S(=O)(=O)N(C[C@@H](O)[C@H](Cc2ccccc2)NC(=O)OC(C)(C)C)C1 (mixture of isomers) [Compound 2] | ten-fold greater activity |

same assay, conditions: purified HIV-1 protease 15 picomolar; peptide substrate 440 micromolar; pH 5.5; 30° C., 60 minutes; HPLC fluorescence detection

| SMILES | IC50 |
| --- | --- |
| CC1Cc2ccccc2S(=O)(=O)N(C[C@@H](O)[C@H](Cc2ccccc2)NC(=O)OC(C)(C)C)C1 (mixture of isomers) [Compound 2] | 240 nM and 220 nM |
| CC(C)(C)OC(=O)N[C@@H](Cc1ccccc1)[C@H](O)CN1CC(c2ccccc2)Cc2ccccc2S1(=O)=O (mixture of isomers) [Compound 7] | 455 nM |
| CC(C)(C)OC(=O)N[C@@H](Cc1ccccc1)[C@H](O)CN1CCCc2ccccc2S1(=O)=O [Compound 1] | 2800 nM and 3050 nM |
| C=CCOC(=O)N[C@@H](Cc1ccccc1)[C@H](O)CN1C[C@H](C)Cc2ccccc2S1(=O)=O [Compound 3] | 5960 nM |
| C=CCOC(=O)N[C@@H](Cc1ccccc1)[C@H](O)CN1C[C@@H](C)Cc2ccccc2S1(=O)=O [Compound 4] | 157 nM |
| CCOC(=O)N[C@@H](Cc1ccccc1)[C@H](O)CN1C[C@H](C)Cc2ccccc2S1(=O)=O [Compound 5] | 10800 nM |
| CCOC(=O)N[C@@H](Cc1ccccc1)[C@H](O)CN1C[C@@H](C)Cc2ccccc2S1(=O)=O [Compound 6] | 199 nM |
| C=CCOC(=O)N[C@@H](Cc1ccccc1)[C@H](O)CN1C[C@H](c2ccccc2)Cc2ccccc2S1(=O)=O [Compound 8] | 3260 nM |
| C=CCOC(=O)N[C@@H](Cc1ccccc1)[C@H](O)CN1C[C@@H](c2ccccc2)Cc2ccccc2S1(=O)=O [Compound 9] | 470 nM |
| CCOC(=O)N[C@@H](Cc1ccccc1)[C@H](O)CN1C[C@H](c2ccccc2)Cc2ccccc2S1(=O)=O [Compound 10] | 2440 nM |
| CCOC(=O)N[C@@H](Cc1ccccc1)[C@H](O)CN1C[C@@H](c2ccccc2)Cc2ccccc2S1(=O)=O [Compound 11] | 864 nM |
| C[C@@H]1Cc2cc(F)ccc2S(=O)(=O)N(C[C@@H](O)[C@H](Cc2ccccc2)NC(=O)OC(C)(C)C)C1 [Compound 12] | 15700 nM |
| C[C@H]1Cc2cc(F)ccc2S(=O)(=O)N(C[C@@H](O)[C@H](Cc2ccccc2)NC(=O)OC(C)(C)C)C1 [Compound 13] | 119 nM |
| C[C@@H]1Cc2ccccc2S(=O)(=O)N(C[C@@H](O)[C@H](Cc2ccccc2)NC(=O)OC(C)(C)C)C1 [Compound 14] | 5470 nM |
| C[C@H]1Cc2ccccc2S(=O)(=O)N(C[C@@H](O)[C@H](Cc2ccccc2)NC(=O)OC(C)(C)C)C1 [Compound 15] | 169 nM |
| C[C@H]1Cc2ccccc2S(=O)(=O)N(C[C@@H](O)[C@H](Cc2ccccc2)NC(=O)Oc2ccccc2)C1 [Compound 17] | 2060 nM |
| C[C@H]1Cc2cc(C(F)(F)F)ccc2S(=O)(=O)N(C[C@@H](O)[C@H](Cc2ccccc2)NC(=O)OC(C)(C)C)C1 [Compound 19] | 1120 nM |
| C[C@@H]1Cc2ccc(C(F)(F)F)cc2S(=O)(=O)N(C[C@@H](O)[C@H](Cc2ccccc2)NC(=O)OC(C)(C)C)C1 [Compound 20] | 8300 nM |
| C[C@H]1Cc2ccc(C(F)(F)F)cc2S(=O)(=O)N(C[C@@H](O)[C@H](Cc2ccccc2)NC(=O)OC(C)(C)C)C1 [Compound 21] | 612 nM |
| COc1ccc2c(c1)C[C@@H](C)CN(C[C@@H](O)[C@H](Cc1ccccc1)NC(=O)OC(C)(C)C)S2(=O)=O [Compound 22] | 6100 nM |
| COc1ccc2c(c1)C[C@H](C)CN(C[C@@H](O)[C@H](Cc1ccccc1)NC(=O)OC(C)(C)C)S2(=O)=O [Compound 23] | 107 nM |
| C[C@H]1Cc2cc(F)ccc2S(=O)(=O)N(C[C@@H](O)[C@H](Cc2ccccc2)NC(=O)C2CN(c3ccccc3)C(=O)O2)C1 (stereo partly drawn) [Compound 24] | 176 nM |
